Patent US8551999B2, “Heterocyclic compound and pharmaceutical composition thereof” (Otsuka Pharmaceutical Co., Ltd., priority 2007, dated 2013)

melting point	Compound
135 to 137 °C	CN(C(=O)c1ccc(C(F)(F)F)cc1)c1ccc(Oc2ccc3c(c2)cc(C(=O)N2CCN(C(=O)c4ccc(C#N)cc4)CC2)n3C)nc1 [Example 242, N-(6-{2-[4-(4-Cyanobenzoyl)piperazine-1-carbonyl]-1-methyl-1H-indol-5-yloxy}pyridin-3-yl)-N-methyl-4-trifluoromethylbenzamide]
185.6 to 189.3 °C	Br.CN(C(=O)c1ccc(Cl)c(Cl)c1)c1ccc(Oc2ccc3cc(C(=O)N4CCN(Cc5ccc(OC(F)F)cc5)CC4)n(C)c3c2)nc1 [Example 488, 3,4-Dichloro-N-(6-{2-[4-(4-difluoromethoxybenzyl)piperazine-1-carbonyl]-1-methyl-1H-indol-6-yloxy}pyridin-3-yl)-N-methyl-benzamide hydrobromide]
230.1 to 232 °C	Cc1ccc(C(=O)N(C)c2ccc(Oc3ccc4cc(C(=O)N5CCN(Cc6ccc(OC(C)C)cc6)CC5)n(C)c4c3)nc2)cc1.Cl
162 to 164 °C	Cn1c(C(=O)N2CCN(C(=O)c3ccccn3)CC2)cc2cc(Oc3ccc(NC(=O)c4ccc(C(F)(F)F)cc4)cn3)ccc21 [Example 239, N-(6-{1-Methyl-2-[4-(pyridine-2-carbonyl)piperazine-1-carbonyl]-1H-indol-5-yloxy}pyridin-3-yl)-4-trifluoromethylbenzamide]
269 to 270.3 °C	Br.Cn1c(C(=O)N2CCN(Cc3ccc(OCC(F)(F)F)cc3)CC2)cc2ccc(Oc3ccc(NC(=O)c4ccc(C(F)(F)F)cc4)cn3)cc21 [Example 474, N-[6-(1-Methyl-2-{4-[4-(2,2,2-trifluoroethoxy)benzyl]piperazine-1-carbonyl}-1H-indol-6-yloxy)pyridin-3-yl]-4-trifluoromethyl-benzamide hydrobromide]
184 to 186 °C	COc1ccc(CN2CCN(C(=O)c3cc4c(C)c(Oc5ccc(N(C)C(=O)c6ccc(C(F)(F)F)cc6)cn5)ccc4n3C)CC2)cc1 [Example 426, N-(6-{2-[4-(4-Methoxybenzyl)piperazine-1-carbonyl]-1,4-dimethyl-1H-indol-5-yloxy}pyridin-3-yl)-N-methyl-4-trifluoromethyl-benzamide]
174.8 to 175.8 °C	CN(c1ccc(Oc2ccc3c(c2)cc(C(=O)N2CCN(Cc4ccc(OCC(F)(F)F)cc4)CC2)n3C)nc1)S(=O)(=O)c1ccc(Cl)c(Cl)c1 [Example 528, 3,4-Dichloro-N-methyl-N-[6-(1-methyl-2-{4-[4-(2,2,2-trifluoro-ethoxy)benzyl]piperazine-1-carbonyl}-1H-indol-5-yloxy)pyridin-3-yl]benzenesulfonamide]
224 to 226 °C	Br.CCOc1ccc(CN2CCN(C(=O)c3cc4c(C)c(Oc5ccc(N(C)C(=O)c6ccc(C(F)(F)F)cc6)cn5)ccc4n3C)CC2)cc1 [Example 427, N-(6-{2-[4-(4-Ethoxybenzyl)piperazine-1-carbonyl]-1,4-dimethyl-1H-indol-5-yloxy}pyridin-3-yl)-N-methyl-4-trifluoromethyl-benzamide hydrobromide]
144 to 147 °C	CCCOc1ccc(CN2CCN(C(=O)c3cc4cc(Oc5ccc(N(C)C(=O)c6ccc(C(F)(F)F)cc6)cn5)ccc4n3C)CC2)cc1.O=C(O)/C=C\C(=O)O [Example 413, N-Methyl-N-(6-{1-methyl-2-[4-(4-propoxybenzyl)piperazine-1-carbonyl]-1H-indol-5-yloxy}pyridin-3-yl)-4-trifluoromethyl-benzamide maleate]
194 to 195 °C	COc1ccc(CN2CCN(C(=O)c3cc4cc(Oc5ccc(NC(=O)c6ccc(-n7cccc7)nc6)cn5)ccc4n3C)CC2)cc1 [Example 226, N-(6-{2-[4-(4-Methoxybenzyl)piperazine-1-carbonyl]-1-methyl-1H-indol-5-yloxy}pyridin-3-yl)-6-pyrrol-1-ylnicotinamide]
249 to 251 °C	Br.COc1ccc(CN2CCN(C(=O)c3cc4cc(Oc5ccc(NC(=O)c6ccc(C(F)(F)F)cc6C)cn5)ccc4n3C)CC2)cc1 [Example 14, N-(6-{2-[4-(4-Methoxybenzyl)piperazine-1-carbonyl]-1-methyl-1H-indol-5-yloxy}pyridin-3-yl)-2-methyl-4-trifluoromethylbenzamide hydrobromide]
235.8 to 237.8 °C	Br.Cc1cc(Oc2ccc3cc(C(=O)N4CCN(Cc5ccc(OCC(F)(F)F)cc5)CC4)n(C)c3c2)ncc1N(C)S(C)(=O)=O [Example 78, N-Methyl-N-[4-methyl-6-(1-methyl-2-{4-[4-(2,2,2-trifluoroethoxy)-benzyl]piperazine-1-carbonyl}-1H-indol-6-yloxy)pyridin-3-yl]-methanesulfonamide hydrobromide]
247.1 to 249.2 °C	CCCOc1ccc(CN2CCN(C(=O)c3cc4ccc(Oc5ccc(N(C)C(=O)c6ccc(C(F)(F)F)cc6F)cn5)cc4n3C)CC2)cc1.Cl
176 to 178 °C	Cn1c(C(=O)N2CCN(Cc3ccccn3)CC2)cc2ccc(Oc3ccc(NC(=O)c4ccc(C(F)(F)F)cc4)cn3)cc21.O=C(O)C(=O)O.O=C(O)C(=O)O [Example 236, N-{6-[1-Methyl-2-(4-pyridin-2-ylmethylpiperazine-1-carbonyl)-1H-indol-6-yloxy]pyridin-3-yl}-4-trifluoromethylbenzamide dioxalate]
149 to 152 °C	Cn1c(C(=O)N2CCN(Cc3ccc(C#N)cc3)CC2)cc2cc(Oc3ccc(NC(=O)c4ccc(C(F)(F)F)cc4)cn3)ccc21.O=C(O)/C=C\C(=O)O [Example 552, N-(6-{2-[4-(4-Cyanobenzyl)piperazine-1-carbonyl]-1-methyl-1H-indol-5-yloxy}pyridin-3-yl)-4-trifluoromethylbenzamide maleate]
214 to 219 °C (dec.)	Br.Br.Cn1c(C(=O)N2CCN(Cc3ccncc3)CC2)cc2cc(Oc3ccc(NC(=O)c4ccc(Cl)c(Cl)c4)cn3)ccc21 [Example 555, 3,4-Dichloro-N-{6-[1-methyl-2-(4-pyridin-4-ylmethylpiperazine-1-carbonyl)-1H-indol-5-yloxy]pyridin-3-yl}benzamide dihydrobromide]
211 to 215 °C	Br.CN(c1ccc(C(F)(F)F)cc1)c1ccc(Oc2ccc3c(c2)cc(C(=O)N2CCN(Cc4ccc5c(c4)OCO5)CC2)n3C)nc1 [Example 335, (4-Benzo[1,3]dioxol-5-ylmethylpiperazin-1-yl)(1-methyl-5-{5-[methyl(4-trifluoromethylphenyl)amino]pyridin-2-yloxy}-1H-indol-2-yl)methanone hydrobromide]
207.8 to 209.3 °C	Cc1ccc(C(=O)N(C)c2ccc(Oc3ccc4cc(C(=O)N5CCN(Cc6ccc(OCC(F)F)cc6)CC5)n(C)c4c3)nc2)cc1.Cl
218 to 220 °C	Br.Br.CCOc1ccc(CN2CCN(C(=O)c3cc4cc(Oc5ccc(NC(=O)c6ccc(Cl)c(Cl)c6)cn5)ccc4n3C)CC2)nc1 [Example 378, 3,4-Dichloro-N-(6-{2-[4-(5-ethoxypyridin-2-ylmethyl)piperazine-1-carbonyl]-1-methyl-1H-indol-5-yloxy}pyridin-3-yl)benzamide dihydrobromide]
256.5 to 259.8 °C	CC(C)S(=O)(=O)N(C)c1ccc(Oc2ccc3cc(C(=O)N4CCN(Cc5ccc(OCC(F)(F)F)cc5)CC4)n(C)c3c2)nc1.Cl
163 to 164 °C	CC(C)CN1CCN(C(=O)c2cc3cc(Oc4ccc(N(C)C(=O)c5ccc(C(F)(F)F)cc5)cn4)ccc3n2C)CC1 [Example 562, N-{6-[2-(4-Isobutylpiperazine-1-carbonyl)-1-methyl-1H-indol-5-yl-oxy]pyridin-3-yl}-N-methyl-4-trifluoromethylbenzamide]
213 to 216 °C	Br.CN(C(=O)c1ccc(C(F)(F)F)cc1)c1ccc(Oc2ccc3c(c2)cc(C(=O)N2CCN(Cc4ccc(OC(F)(F)F)cc4)CC2)n3C)nc1 [Example 343, N-Methyl-N-(6-{1-methyl-2-[4-(4-trifluoromethoxybenzyl)-piperazine-1-carbonyl]-1H-indol-5-yloxy}pyridin-3-yl)-4-tri-fluoromethylbenzamide hydrobromide]
267 to 272 °C (dec.)	Br.Cn1c(C(=O)N2CCN(Cc3ccc(C#N)cc3)CC2)cc2cc(Oc3ccc(NC(=O)c4ccc(Cl)c(Cl)c4)cn3)ccc21 [Example 556, 3,4-Dichloro-N-(6-{2-[4-(4-cyanobenzyl)piperazine-1-carbonyl]-1-methyl-1H-indol-5-yloxy}pyridin-3-yl)benzamide hydrobromide]
159 to 160 °C	COc1ccc(CN2CCN(C(=O)c3cc4cc(Oc5ccc(NC(=O)c6ccc(C(F)(F)F)cc6)cn5)ccc4n3C)[C@@H](C)C2)cc1.O=C(O)C(=O)O [Example 396, N-(6-{2-[(S)-4-(4-Methoxybenzyl)-2-methylpiperazine-1-carbonyl]-1-methyl-1H-indol-5-yloxy}pyridin-3-yl)-4-trifluoromethyl-benzamide oxalate]
224 to 228 °C	Br.CCN(C(=O)Nc1ccc(Cl)c(Cl)c1)c1ccc(Oc2ccc3c(c2)cc(C(=O)N2CCN(Cc4ccc5c(c4)OCO5)CC2)n3C)nc1 [Example 583, 1-{6-[2-(4-Benzo[1,3]dioxol-5-ylmethylpiperazine-1-carbonyl)-1-methyl-1H-indol-5-yloxy]pyridin-3-yl}-3-(3,4-dichlorophenyl)-1-ethylurea hydrobromide]
226.1 to 227.3 °C	Br.Cc1ccc(C(=O)N(C)c2ccc(Oc3ccc4cc(C(=O)N5CCN(Cc6ccc(OCC(F)(F)F)cc6)CC5)n(C)c4c3)nc2)cc1 [Example 23, 4,N-Dimethyl-N-[6-(1-methyl-2-{4-[4-(2,2,2-trifluoroethoxy)-benzyl]piperazine-1-carbonyl}-1H-indol-6-yloxy)pyridin-3-yl]-benzamide hydrobromide]
228 to 232 °C (dec.)	Br.Br.Cc1cc(Oc2ccc3c(c2)cc(C(=O)N2CCN(Cc4ccncc4)CC2)n3C)ncc1NC(=O)c1ccc(C(F)(F)F)cc1 [Example 362, N-{4-Methyl-6-[1-methyl-2-(4-pyridin-4-ylmethylpiperazine-1-carbonyl)-1H-indol-5-yloxy]pyridin-3-yl}-4-trifluoromethyl-benzamide dihydrobromide]
240 to 242 °C	Br.CCCOc1ccc(CN2CCN(C(=O)c3cc4ccc(Oc5ccc(N(C)C(=O)c6ccc(OC(F)(F)F)cc6)cn5)cc4n3C)CC2)cc1 [Example 471, N-Methyl-N-(6-{1-methyl-2-[4-(4-propoxybenzyl)piperazine-1-carbonyl]-1H-indol-6-yloxy}pyridin-3-yl)-4-trifluoromethoxy-benzamide hydrobromide]
